Test results: US8445538B2, “Glucagon receptor antagonist compounds” (Merck Sharp & Dohme Corp., priority 2008, dated 2013)

The compounds below were run against T1, human glucagon receptor (Homo sapiens, UniProt P47871) (assay: Glucagon Receptor Binding Assay (125I-glucagon, SPA, CHO cell membranes)). Conditions: 125I-Glucagon binding to membranes of CHO cells expressing cloned human glucagon receptor; more active isomer of indicated compounds.
T1 construct: expressed in transfected cells; cell membranes used
Protocol: Glucagon Receptor Binding Assay
A stable CHO (Chinese hamster ovary) cell line expressing cloned human glucagon receptor was maintained as described (Chicchi, et. al. J Biol Chem 272, 7765-9 (1997); Cascieri, et. al. J Biol Chem 274, 8694-7 (1999)). To determine antagonistic binding affinity of compounds, 0.001-0.003 mg of cell membranes from these cells were pre-incubated with 0.100 mg WGA-coated PVT SPA beads (Amersham) for 20 minutes at room temperature in 25 μL of a buffer containing 50 mM Tris-HCl (pH 7.5), 5 mM MgCl2, 2 mM EDTA, 0.1% BSA and 3% glycerol in Costar 384 well plates with clear bottoms (#3706). Next, 25 μL of ^125I-Glucagon (New England Nuclear, Mass.) (1×10^−14 mol per well) and either 1 μL solutions of test compounds or 0.001 mM unlabeled glucagon or DMSO were added and mixed. After 4-12 hours incubation at room temperature, the radioactivity bound to the cell membranes was determined in a radioactive emission detection counter (Wallac-Microbeta). Data were analyzed using the Data Analyzer software program of Merck & Co., Inc. The IC50 values were calculated using non-linear regression analysis assuming single-site competition.

T1 sequence (P47871 26-477): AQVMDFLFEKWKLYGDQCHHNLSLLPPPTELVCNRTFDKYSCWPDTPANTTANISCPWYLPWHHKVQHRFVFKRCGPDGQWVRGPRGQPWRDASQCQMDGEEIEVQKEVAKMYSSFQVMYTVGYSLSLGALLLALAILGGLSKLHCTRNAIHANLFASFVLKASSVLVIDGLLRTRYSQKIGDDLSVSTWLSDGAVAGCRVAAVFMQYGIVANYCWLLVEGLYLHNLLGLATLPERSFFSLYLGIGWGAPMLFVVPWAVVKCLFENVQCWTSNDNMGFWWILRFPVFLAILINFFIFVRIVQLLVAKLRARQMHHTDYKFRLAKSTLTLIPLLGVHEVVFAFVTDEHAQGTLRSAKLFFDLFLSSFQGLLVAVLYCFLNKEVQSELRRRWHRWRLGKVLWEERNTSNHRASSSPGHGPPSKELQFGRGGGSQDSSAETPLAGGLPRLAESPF

| SMILES | IC50 [nM] |
| --- | --- |
| CCCC(c1ccc(C(=O)NCCC(=O)O)cc1)C(c1ccc(Cl)cc1)c1ccc(OC)c2ccc(OC)cc12 (stereo not drawn) [Example 21] | 14.2 |
| CCC[C@H](c1ccc(C(=O)NCCS(=O)(=O)O)cc1)C(c1ccc(Cl)cc1)c1ccc(F)c2ccccc12 (stereo partly drawn) [Example 53] | 3.4 |
| CCCC(c1ccc(C(=O)NCCC(=O)O)cc1)C(c1ccc(C)cc1)c1ccc(F)c2ccccc12 (stereo not drawn) [Example 12] | 4.3 |
| CCC[C@H](c1ccc(C(=O)Nc2nnn[nH]2)cc1)C(c1ccc(Cl)cc1)c1ccc(F)c2ccccc12 (stereo partly drawn) [Example 56] | 7.6 |
| CCCC(c1ccc(C(=O)NCCC(=O)O)cc1)C(c1ccc(Cl)cc1)c1c(Cl)cc(OC)c2c(F)cccc12 (stereo not drawn) [Example 30] | 53 |
| CCC[C@H](c1ccc(C(=O)NCC(F)(F)C(=O)O)cc1)C(c1ccc(Cl)cc1)c1ccc(F)c2ccccc12 (stereo partly drawn) [Example 52] | 98 |
| CCC[C@H](c1ccc(C(=O)NCc2nnn[nH]2)cc1)C(c1ccc(Cl)cc1)c1ccc(F)c2ccccc12 (stereo partly drawn) [Example 55] | 4 |

These reach a lower IC50. Values come first.

| IC50 [nM] | SMILES |
| --- | --- |
| 2.1 | CCC[C@H](c1ccc(C(=O)NCCC(=O)O)cc1)C(c1ccc(C#N)cc1)c1ccc(F)c2ccccc12 (stereo partly drawn) [Example 5, N-(4-{(1S)-1-[(4-cyanophenyl)(4-fluoro-1-naphthyl)methyl]butyl}benzoyl)-β-alanine] |
| 2.9 | CCCC(c1ccc(C(=O)NCCC(=O)O)cc1)C(c1ccc(Cl)cc1)c1ccc2cc(S(C)(=O)=O)ccc2c1 (stereo not drawn) [Example 37] |
| 0.85 | CCC[C@H](c1ccc(C(=O)NCCC(=O)O)cc1)C(c1ccc(Cl)cc1)c1ccc2cc(OC)ccc2c1 (stereo partly drawn) [Example 2, N-(4-{(1S)-1-[(4-chlorophenyl)(6-methoxy-2-naphthyl)methyl]butyl}benzoyl)-β-alanine] |
| 3.3 | CCC[C@H](c1ccc(C(=O)NCCC(=O)O)cc1)C(c1ccc(Cl)cc1)c1ccc(F)c2ccccc12 (stereo partly drawn) [Example 1, N-(4-{(1S)-1-[(4-chlorophenyl)(4-fluoro-1-naphthyl)methyl]butyl}benzoyl)-β-alanine] |
| 1.7 | CCC[C@H](c1ccc(C(=O)NC[C@H](O)C(=O)O)cc1)C(c1ccc(Cl)cc1)c1ccc2cc(OC)ccc2c1 (stereo partly drawn) [Example 7, (2S)-3-[(4-{(1S)-1-[(4-chlorophenyl)(6-methoxy-2-naphthyl)methyl]butyl}benzoyl)amino]-2-hydroxypropanoic acid] |
| 1.5 | CCC[C@H](c1ccc(C(=O)NCCC(=O)O)cc1)C(c1ccc(Cl)cc1)c1ccc2cc(C#N)ccc2c1 (stereo partly drawn) [Example 4] |
| 0.83 | CCCC(c1ccc(C(=O)NCCC(=O)O)cc1)C(c1ccc(Cl)cc1)c1ccc2cc(SC)ccc2c1 (stereo not drawn) [Example 36] |
| 0.37 | CCC[C@H](c1ccc(C(=O)NCCC(=O)O)cc1)C(c1ccc(Cl)cc1)c1ccc2cc(OC(F)F)ccc2c1 (stereo partly drawn) [Example 3, N-[4-((1S)-1-{(4-chlorophenyl)[6-(difluoromethoxy)-2-naphthyl]methyl}butyl)benzoyl]-β-alanine] |
